Experimental findings from US20260273076A1, “PHARMACEUTICAL COMPOSITIONS AND METHOD OF TREATMENT OF METASTATIC AND OTHER CANCERS” (Favorite Pharmaceuticals, priority 2023, published 2026) are described below.

The subject of test [1] is HCT-116 cells. Conditions: HCT-116 2-D, 72 hours. On the procedure: Cells were incubated for 72 hours in a 37° C./5% CO2 incubator. […] At the conclusion of the 72-hour timepoint, cells were labeled with 6 μL/mL MitoTracker Deep Red and 1:250 Viability Dye.
Following labeling, cells were fixed in 10% neutral buffer formalin and permeabilized with 0.2% Triton X-100 in 1×PBS. Cells were then labeled with 1:500 Hoechst 33342 Ready Flow™ Reagent And 5 μL/mL Alexa Fluor 488 phalloidin.
Cells were then imaged at 20× widefield using a Molecular Devices ImageXpress Micro Confocal High-Content imaging platform. The scan laser/dichromic settings were tuned for 405, 488, 647, and 730 nm excitation wavelengths. Images were acquired and saved as 16-bit 2048×2048 TIF files for further processing. A grid of the sites at well centers was acquired during image capture.
The images were then analyzed using nuclear, phalloidin, and MitoTracker Channels. The number of cells was determined for each. Viable and non-viable cells were determined using colocalization of the nuclear channel and the viability dye images after thresholding. Phalloidin and MitoTracker cell object intensity distributions were quantified using cellular objects positive for phalloidin and MitoTracker. Statistical analysis was performed using GraphPad Prism statistical software. Nonlinear regression was used as a curve fitting tool to determine compound efficacy.

In test [2] the test system is human pancreatic cancer (BXPC3) cells. On the procedure: In this example, human pancreatic cancer (BXPC3) cells were grown on microscope slides for 24 hours prior to administration of test articles. […] Imaging was at 10× with photographs taken once every five minutes.
The timeline proceeds from left to right.

For test [3], the system named is BXPC3 cells. From the text: Molecular crowding occurs when high concentrations of macromolecules reduce the volume of solvent available for other molecules in the solution, effecting the properties of cellular water. […] An increase in dry mass on addition of drug to the cells reflects uptake of the conjugate into the intracellular space. […] The method has been used to evaluate a dose response relationship and the characteristic response patterns of specific cell types to selected polyethylene glycol fatty acid conjugated structures.

For test [4], the system named is human pancreatic cancer (BX PC3) cells. Conditions: 200 micromolar, 24 hours.
Test [5] concerns A549, HL-60, Raji B, Panc-1, and PC3 cancer cell lines. Conditions: 4-5 h period, 5 cell lines.
Test [6] concerns PDX derived cell line models (pancreatic cancer patients) in co-culture with human dermal fibroblasts. Briefly: Cypre 3D Oncology in vitro patient-derived xenograft (PDX) Panel (Example 11). In kind it is cell-based. Conditions: treated four days, 5 patients. How it is done:
In this example, a Cypre PDX assay was carried out in 5 different pancreatic cancer patients using 5 test compounds. […] The endpoint from this assay was tumor size and DRAQ7 staining.
PDX Tumor cells were expanded in 2D cell culture and then grown in 3D hydrogels, co-embedded with human dermal fibroblasts (HDF). […] After, 3D assays were stained with Hoechst and DRAQ7, fixed, and analyzed using a high content imager and proprietary image analysis software.
For orientation: A xenograft is tissue or cells of one species grown in another, often human tumour cells in immunodeficient mice.

Test [7] deals with HCT-116 spheroids. As to the kind of experiment: HCT-116 spheroid viability / mitochondrial staining, high-content imaging (Example 1). The class given is cell-based. Conditions: 72 hours. How it is done:
Monolaurin was also similarly compared as a non-pegylated Lauric acid control.
HCT-116 cells were cultured according to ATCC guidelines and spheroids containing the cells were incubated in plate maps. […] After 72 hours of incubation, the images were taken at 10× with a 25-step z-stack in […] on a Molecular Devices imager.
On the day of dosing, C12 (C12=C12-Ether-PEG-1000), C-18 (C18=C18-amide-PEG-1000) and monolaurin were reconstituted in DMSO to make stock solutions of 60 mM. Lauric Acid and Polyethylene Glycol were also reconstituted in DMSO to make stock solutions of 120 mM. C-12, C-18 and monolaurin stock solutions were then serially diluted at half-log steps in DMSO and then diluted 100× in maintenance media. Lauric Acid and monomethoxy polyethylene glycol MW 1000 (PEG) were serially diluted in DMSO and then diluted 200× in maintenance media. Dosing done according to manufacturer's protocol.
DMSO concentrations were kept consistent across all wells at 0.5%. Following dosing, Plate 1 & 2 were incubated in a 37° C., 5% CO2 incubator for 72 hours. Plate 1 was removed from incubation between 60 and 180 min timepoints for imaging. Well A05 in Plate 1 was imaged in bright field at 10× while incubated in the imager at 37° C. Images were taken at 5-minute intervals for 120 mins. Following imaging, Plate 1 was immediately placed back into 37° C., 5% C02 incubator. […]

Like-named read-outs stand apart in the source and are kept apart here.

As to “polyethylene glycol octadecyl ether [C18-Ether-PEG-1000]”, in test [1], the MitoTracker intensities entry is reported as “modest effect”, the “concentration at which total cell death / death of all the cells occurred” value amounted to 50 µM and the “effects on cell viability” value is on record as “strong effects on cell viability”. The effect on cells result in test [2] (100 μM and 200 μM, 24 hours of incubation) is on record as “drastic with both concentrations”. Also, in test [2] (100 μM vs 200 μM, 24 hours), the “cell kill at lower vs higher concentration” value is listed as “less cell kill at the lower concentration”. For the same compound, in test [2] (200 μM, 1-hour period), the “effect on a cluster of cells” value is “membrane disruption and cell death”. Moreover, the “time to cell fragmentation after dosing” value in test [2] (200 uM, single cell) is not above 60 min. In test [3], the “time post dosing to membrane disruption leading to cell death” value is not above 40 min. For the same compound, in test [3] (first study (FIG. 17A)), the “drop of cell mass” value came to 3 fold and the “time post dosing of phase drop in dry mass” value was in the range of 30 to 50 min. Moreover, in test [3] (repeat study (FIG. 17D)), the “cell mass decrease, factor” value came to 2 and the “time of major phase drop after the addition of the drug” value is recorded as “about 25 minutes”. The “number of cells in clusters vs no drug control” value in test [4] is recorded as “significantly reduced”. In test [5] (50 μM), this compound came in with a cell death of 80%. Moreover, the cell death in test [5] (100 μM) came out at 100%.

Regarding `CCCCCCCCCCCCCCCCCCNc1c(NCCOCCOCCOCCOCCOCCOCCOCCOCCOCCOCCOCCOCCOCCOCCOCCOCCOCCOCCOCCOCCOCCOC)c(=O)c1=O` [C18-Squaramide-PEG-1000, 3-((2,5,8,11,14,17,20,23,26,29,32,35,38,41,44,47,50,53,56,59,62,65-docosaoxa-heptahexacontan-67-yl)amino)-4-(octadecylamino)cyclobut-3-ene-1,2-dione], in test [6], the “Tumor Total area: activity in comparison” value was “similarity in activity”.

In the case of “polyethylene glycol octadecyl ether [C18-Ether-PEG-5000]”, in test [1], the MitoTracker intensities result is recorded as “no effects” and the “concentration at which total cell death / death of all the cells occurred” value was 100 µM. Moreover, in test [2] (300 μM, 24 hours of incubation), the “cell destruction vs no drug control” value is given as “completely destroyed”. Further, the “effect on existing cell mass / clusters” value in test [2] (300 μM, after 19 hours) is “dissociation of the accumulated mass and loss of cellular motility and death”. This compound came in with a kill kinetic in test [2] (BXPC3, 300 μM (Example 3)) of 19 h. In addition, in test [6], the “DRAQ7 cell death assay: activity in comparison with standard of care” value was “equal to standard of care” and the “Tumor Total area: activity in comparison” value was “equal to standard of care”.

Turning to `CCCCCCCCCCCC(=O)O` [Lauric Acid], in test [7], the “effect on cell viability, treatment vs control” value is “no difference between treatment and control”.
